Reference: ChEMBL document CHEMBL1158405, “Identification of nobiletin, a polymethoxyflavonoid, as an enhancer of adiponectin secretion” (2009)
Activity calls are given as the source filed them. The rule behind the calls is not given here.

Key:
ST-13 [1] = assay: Induction of adipocyte differentiation in mouse ST-13 cells assessed as stimulation of adipocyte P2 mRNA expression at 0.1 to 30 uM within 11 days by semi-quantitative RT-PCR; assay type: functional, cell-based
ST-13 [2] = assay: Induction of preadipocyte differentiation in mouse ST-13 cells assessed as triglyceride accumulation after 11 days by Fletcher's method; assay type: functional, cell-based
ST-13 [3] = assay: Induction of adipocyte differentiation in mouse ST-13 cells assessed as increase in PPARgamma2 mRNA level after 11 days by semi-quantitative RT-PCR relative to control; assay type: functional, cell-based
ST-13 [4] = assay: Induction of adipocyte differentiation in mouse ST-13 cells assessed as stimulation of adipsin mRNA expression at 0.1 to 30 uM within 11 days by semi-quantitative RT-PCR; assay type: functional, cell-based
[5] = Induction of adiponectin secretion in mouse ST-13 cells at 10 uM after 11 days by ELISA relative to control; assay type: functional
ST-13 [6] = assay: Induction of preadipocyte differentiation in mouse ST-13 cells assessed as lipid accumulation at 10 uM within 11 days by oil red-staining relative to control; assay type: functional, cell-based
ST-13 [7] = assay: Induction of adiponectin protein secretion in mouse ST-13 cells assessed as adiponectin mRNA level after 11 days by semi-quantitative RT-PCR; assay type: functional, cell-based
[8] = biological target: T1, Peroxisome proliferator-activated receptor gamma (Homo sapiens) (UniProt P37231); assay: Agonist activity at Gal4-fused human PPARgamma expressed in african green monkey COS1 cells at 30 uM by luciferase reporter gene assay; assay type: functional, cell-based; details: COS-1
T1 sequence (whole entry): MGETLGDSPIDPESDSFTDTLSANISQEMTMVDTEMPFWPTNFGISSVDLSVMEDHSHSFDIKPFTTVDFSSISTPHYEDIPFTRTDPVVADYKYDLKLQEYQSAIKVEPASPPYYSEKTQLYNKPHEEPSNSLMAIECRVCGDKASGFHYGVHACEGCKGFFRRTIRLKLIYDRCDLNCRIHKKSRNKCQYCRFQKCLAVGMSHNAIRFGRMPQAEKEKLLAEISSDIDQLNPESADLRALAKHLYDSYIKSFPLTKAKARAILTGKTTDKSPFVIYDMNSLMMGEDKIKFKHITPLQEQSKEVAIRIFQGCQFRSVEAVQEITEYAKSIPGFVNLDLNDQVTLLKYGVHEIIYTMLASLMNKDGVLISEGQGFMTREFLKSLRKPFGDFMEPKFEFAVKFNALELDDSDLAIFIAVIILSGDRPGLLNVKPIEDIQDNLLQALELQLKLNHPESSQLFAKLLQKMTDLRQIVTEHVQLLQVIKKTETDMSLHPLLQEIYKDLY

ST-13 [9] = assay: Induction of adiponectin secretion in mouse ST-13 cells after 11 days by ELISA; assay type: functional, cell-based
ST-13 [10] = assay: Induction of preadipocyte differentiation in mouse ST-13 cells assessed as lipid accumulation at 5 uM within 11 days by oil red-staining relative to control; assay type: functional, cell-based

Question: Which Activity (ST-13 [1]) does the source give for `COc1ccc(-c2cc(=O)c3c(OC)c(OC)c(OC)c(OC)c3o2)cc1OC` [NOBILETIN] here?
Answer: Its Activity is “Active”.

Question: And the Activity (ST-13 [2])?
Answer: Its Activity is “Dose-dependent effect”.

Question: And the Activity (ST-13 [3])?
Answer: Its Activity is “Active”.

Question: What about the Activity (ST-13 [4]) of the same compound?
Answer: The Activity was “Active”.

Question: What about the Activity [5] of the same compound?
Answer: Its Activity is 340%.

Question: And the Activity (ST-13 [6])?
Answer: Its Activity is “Active”.

Question: And the Activity (ST-13 [7])?
Answer: Its Activity is “Dose-dependent effect”.

Question: What about the Activity [8] of the same compound?
Answer: Its Activity is “inactive”.

Question: And the Activity (ST-13 [9])?
Answer: Its Activity is “Dose-dependent effect”.

Question: For `COc1ccc(-c2cc(=O)c3c(OC)cc(OC)c(OC)c3o2)cc1`, which Activity (ST-13 [9]) is on record?
Answer: The Activity was “Active”.

Question: For `Cc1c(C)c2c(c(C)c1O)CCC(C)(COc1ccc(CC3SC(=O)NC3=O)cc1)O2` (stereo unspecified), which Activity (ST-13 [10]) is on record?
Answer: The Activity was “Active”.
